From PubChem BioAssay (NCI)
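1) Cells in 96-well plates. 2) Compound, 48 h, 5 concentrations. 3) Linear interpolation between surrounding doses. 4) Unreached endpoint = highest concentration. TGI: concentration producing complete growth inhibition.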 *1 amine or outer side, *2 acyl side, *3 side chain or, on linkers, in order; H or OH if unused. Where a SMILES comes first, the peptide text is derived from it. [ ]: non-standard residue; d: D form. The star is where a group is joined. ξ: configuration not given here. X27 = O=C([C@H]1CCC[C@H]1N[*:1])[*:2]; ξW = NC(Cc1c[nH]c2ccccc12)C(=O)O; ξF = NC(Cc1ccccc1)C(=O)O; Boc = CC(C)(C)OC(=O)*; ξK = NCCCCC(N)C(=O)O; ξT = CC(O)C(N)C(=O)O; tBu = CC(C)(C)*

Assays:
Test in all cases: NCI-60 cell line screen, 48 h
CAKI-1 renal = system: CAKI-1 renal
EKVX NSCLC = system: EKVX NSCLC
MCF7 breast = system: MCF7 breast
NCI-H522 lung = system: NCI-H522 lung
HCT-15 colon = system: HCT-15 colon
M14 melanoma = system: M14 melanoma
SF-268 CNS = system: SF-268 CNS
RPMI-8226 leukemia = system: RPMI-8226 leukemia
KM12 colon = system: KM12 colon
SNB-75 CNS = system: SNB-75 CNS
MALME-3M melanoma = system: MALME-3M melanoma
HT29 colon = system: HT29 colon

| Compound | TGI (CAKI-1 renal) [µM] | TGI (EKVX NSCLC) [µM] | TGI (MCF7 breast) [µM] | TGI (NCI-H522 lung) [µM] | TGI (HCT-15 colon) [µM] | TGI (M14 melanoma) [µM] | TGI (SF-268 CNS) [µM] | TGI (RPMI-8226 leukemia) [µM] | TGI (KM12 colon) [µM] | TGI (SNB-75 CNS) [µM] | TGI (MALME-3M melanoma) [µM] | TGI (HT29 colon) [µM] |
| --- | --- | --- | --- | --- | --- | --- | --- | --- | --- | --- | --- | --- |
| FC(F)(F)c1ccc(Cc2nc3cc4ccccc4cc3[nH]2)cc1 | > 100 | > 100 | > 100 | > 100 | > 100 | > 100 | > 100 | > 100 | > 100 | 36.1 | > 100 | > 100 |
| CCCCNc1nc2ccccc2c2c1ncn2CC(C)C | > 100 | > 100 | > 100 | > 100 | > 100 | > 100 | > 100 | > 100 | > 100 | > 100 | > 100 | > 100 |
| CCc1c(CN)c(CC)c(CNC2=NCCN2)c(CC)c1CNC1=NCCN1 | > 100 | > 100 | > 100 | > 100 | > 100 | > 100 | > 100 | > 100 | > 100 | > 100 | > 100 | > 100 |
| O=c1[nH]nc(Cc2ccc(Cl)cc2)n1/N=C/c1ccco1 | > 100 | > 100 | > 100 | > 100 | > 100 | > 100 | > 100 | > 100 | > 100 | 49.7 | > 100 | > 100 |
| COc1ccc(CC2C3=C(CCN2C(=O)C2CCC2)CC2(CC3)OCCO2)cc1O (centres undefined) | > 100 | > 100 | > 100 | 38.3 | 46.2 | 63.1 | > 100 | > 100 | > 100 | 52.4 | > 100 | > 100 |
| Cc1sc2[nH]c(=O)oc(=O)c2c1C | > 100 | > 100 | > 78.9 | > 83.1 | > 100 | > 100 | > 100 | > 100 | > 93.3 | > 100 | > 100 | > 100 |
| O=[N+]([O-])c1ccc2nc(Cl)n[n+]([O-])c2c1 | 30.1 | 39 | 20 | 25.8 | 29.7 | 27.5 | 30.7 | 9.1 | 51.8 | 28.2 | 29.5 | 49.1 |
| O=C(Cn1cc(-c2ccccc2)nn1)NC1CCCCC1 | > 100 | > 100 | > 100 | > 100 | > 100 | > 100 | > 100 | > 100 | > 100 | > 100 | > 100 | > 100 |
| O=C1NC(=S)N/C1=C\c1cc2c(=O)c3ccccc3sc2s1 | > 100 | > 100 | > 100 | > 100 | > 100 |  | > 100 | > 100 | > 100 | 72 | > 100 | > 100 |
| C[Si](C)(C)C#Cc1cc(-c2nc3ccccc3s2)ccc1N | 31 | 25.7 | 12 | 27.3 | 32.1 | 31 | 32.1 | 48.3 | 34.2 | 27.5 | 23.7 | 38.6 |
| COC(=O)CCC(C)[C@H]1CCC2C3C(C[C@H](OC(C)=O)[C@@]21C)[C@@]1(C)CCC2(C[C@H]1C[C@H]3OC(C)=O)OOC1(CCCC1)OO2 (some centres undefined) | 92 | 56.4 | > 100 | > 100 | > 100 | > 100 | > 100 | 9.44 | > 100 | > 100 | > 100 | > 100 |
| O=[N+]([O-])c1ccc(-c2cc(O)c3nc4ccccc4n3c2)cc1 | > 100 | > 100 | > 100 | > 100 | > 100 | > 100 | > 100 | > 100 | > 100 | > 76.2 | > 100 | > 100 |
| Cc1ccc(S(=O)(=O)N2CCN(S(=O)(=O)c3ccc(C)cc3)CCN(S(=O)(=O)c3ccc(C)cc3)Cc3cc(C#N)c(C#N)cc3CN(S(=O)(=O)c3ccc(C)cc3)CC2)cc1 | > 100 | > 100 | > 100 | > 100 | > 100 | 89.1 | > 100 | > 100 | > 100 | > 100 | > 100 | > 100 |
| N#Cc1cnc(-n2[nH]c3c(c2=O)CCCC3)[nH]c1=O | > 100 | > 100 | > 100 | > 100 | > 100 | > 100 | > 100 | > 100 | > 100 | 55.9 | > 100 | > 100 |
| O=C1c2cccnc2S(=O)(=O)N1c1ccc(Oc2ccccc2)cc1 | > 100 | > 100 | > 100 | > 100 | > 100 | > 100 | > 100 | > 100 | > 100 | > 100 | > 100 | > 100 |
| O=C(NC(=S)Nc1ccc2c(c1)Sc1ccccc1O2)c1ccc([N+](=O)[O-])cc1 | > 100 | > 100 | > 100 | > 100 | > 100 | > 100 | > 100 | > 100 | > 100 | > 100 | > 100 | > 100 |
| COc1cc(C(=O)/C=C/c2ccc(OCCSCCCCCCCCCCSCCOc3ccc(/C=C/C(=O)c4cc(OC)c(OC)c(OC)c4)cc3)cc2)cc(OC)c1OC | > 100 | > 100 | > 100 | > 100 | > 100 | > 100 | > 100 | > 100 | > 100 | > 100 | > 100 | > 100 |
| Oc1cc(O)c2ccc(-c3ccc(O)c(O)c3)[o+]c2c1 | > 100 | > 100 | > 100 | > 100 | > 100 | > 100 | > 100 | > 100 | > 100 | > 100 | > 100 | > 100 |

| Compound | TGI (CAKI-1 renal) [µM] | TGI (EKVX NSCLC) [µM] | TGI (MCF7 breast) [µM] | TGI (NCI-H522 lung) [µM] | TGI (HCT-15 colon) [µM] | TGI (M14 melanoma) [µM] | TGI (SF-268 CNS) [µM] | TGI (RPMI-8226 leukemia) [µM] | TGI (KM12 colon) [µM] | TGI (SNB-75 CNS) [µM] | TGI (MALME-3M melanoma) [µM] | TGI (HT29 colon) [µM] |
| --- | --- | --- | --- | --- | --- | --- | --- | --- | --- | --- | --- | --- |
| C=CCc1[nH]c2c(OCc3ccccc3)cc(N(CC=C)C(C)=O)cc2c1C | 29.9 | 21 | 24.9 | 26.5 | 25.6 | 21.8 | 24.6 | 67.6 | 30.1 | 23.4 | 30.4 | 20.5 |
| COc1ccc(OC)c(CSc2ccc(OC)c(OC)c2)c1 | > 100 | > 100 | > 100 | > 100 | > 100 | > 100 | > 100 | > 100 | > 100 | > 100 | > 100 | > 100 |
| Cc1ccc2c(=O)cc(Cc3cccs3)[nH]c2n1 | > 100 | > 100 | > 100 | > 100 | > 100 | > 100 | > 100 | > 100 | > 100 | > 100 | > 100 | > 100 |
| CC1(C)CC(O)C2=C(O1)C(=O)c1ncccc1C2=O (centres undefined) | 4.45 | 6.76 | 5.34 | 3.86 | 12 | 4.22 | 4.85 | > 22.6 | 8.17 | 2.1 | 3.17 | 35.8 |
| CC1=NN(C(=O)c2ccccc2O)C(=O)/C1=C/c1cccc(O)c1 | > 100 | > 100 | > 100 | > 30.7 | > 100 | 37 | > 100 | > 100 | > 100 | > 100 | > 100 | > 100 |
| Cn1c(NNc2ccccc2)cc(=O)[nH]c1=O | > 100 | > 100 | > 100 | 40.5 | > 100 | > 100 | > 100 | > 100 | 65.3 | > 100 | > 100 | > 100 |
| C=CCNC(=S)N=Nc1c(O)n(CN2CCOCC2)c2ccc([N+](=O)[O-])cc12 | > 100 | > 100 | > 100 | > 100 | > 100 | > 100 | > 100 | > 100 | > 100 | 88.3 | > 100 | > 100 |
| CCCC(=O)NC(Nc1cc(C)ccn1)(C(=O)OCC)C(F)(F)F (centres undefined) | > 100 | > 100 | > 100 | > 100 | > 100 | > 100 | > 100 | > 100 | > 100 | > 100 | > 100 | > 100 |
| CC(=O)OC(CN1CCN(c2ccccn2)CC1)Cn1sc2nc(C)cc(C)c2c1=O (centres undefined) | 37.2 | 32.4 | 34 | 22.7 | 42.2 | 31.4 | 32.9 | > 100 | 49 | 32.8 | 32.6 | 34.4 |
| O=C(c1cc2ccccc2[nH]1)N1C2CCC1CN(CCOC(c1ccc(F)cc1)c1ccc(F)cc1)CC2 (centres undefined) | > 100 | > 100 | > 100 | > 100 | > 100 | > 100 | > 100 | > 100 | > 100 | > 100 | > 100 | > 100 |
| CC(OC(C)(C)C)C1NC(=O)C(CCCCNC(=O)OC(C)(C)C)NC(=O)C(Cc2c[nH]c3ccccc23)NC(=O)C(Cc2ccccc2)NC(=O)[C@H]2CCC[C@H]2NC(=O)C(Cc2ccccc2)NC1=O (some centres undefined) (cyclo([X27][ξF][ξW][ξK](Boc)[ξT](tBu)[ξF])) | > 100 | > 100 | > 100 | > 100 | > 100 | > 100 | > 100 | > 100 | > 100 | > 100 | > 100 | > 100 |
| NC(CSCc1ccc(I)cc1)C(=O)O (centres undefined) | > 100 | > 100 | > 100 | > 100 | > 100 | > 100 | > 100 | > 100 | > 100 | > 100 | > 100 | > 100 |
| O=c1ccn(CC2(CO)CCCC2)c(=O)[nH]1 | > 100 | > 100 | > 100 | > 100 | > 100 |  | > 100 | > 100 | > 100 | > 100 | > 100 | > 100 |
| CCCCCCCCCCCCCCCCCCNc1ccn(C2OC(COP(=O)(O)OCC3OC(n4cc(C)c(=O)[nH]c4=O)CC3F)C(O)C2O)c(=O)n1 (centres undefined) | 16.8 | 20.7 | > 64.5 | 9.04 | 15.9 | 30.9 | 19.5 | 12.9 | 14.3 | 37.6 | 40.9 | > 55 |
| CCOC(=O)CCC(NC(=O)Cc1ccc(Nc2nc3ccccc3nc2-c2cccs2)cc1)C(=O)OCC (centres undefined) | > 100 | > 100 | > 100 | > 100 | > 100 | > 100 | > 100 | > 100 | > 100 | > 100 | > 100 | > 100 |
| CN(C)CCCC1c2ccccc2Oc2ccc(C(F)(F)F)cc21 (centres undefined) | 25.8 | 31.3 | 26.6 | 29.4 | 31.5 | 14.2 | 28.5 | 25.3 | 28.4 | 27.7 | 15.8 | 18.9 |
| CC1=NN(c2nc(N)nc(CBr)n2)C(C)(C)C1 | 3.06 | 15 | 11.3 | 1.01 | 16.6 | 21.2 | 23 | 5.61 | 23.5 | 21.7 | 7.54 | 18.6 |
| CCOc1ccc(N/C(=C(/C(Cl)=C(/Cl)Nc2ccccc2)[N+](=O)[O-])n2nnc3ccccc32)cc1 | 60.4 | > 100 | > 100 | 39.5 | 28 | 34 | 53.4 | > 100 | > 100 | > 100 | 44.4 |  |
